The test system of assay [1] is H3KC9me3 mononucleosome. Kind of assay: ITC, H3KC9me3 mononucleosome. The assay is classed as binding, Xenopus laevis. Conditions: for Kd: ITC, pH 7.5, 25°C, read-out: Kd (apparent dissociation constant). An excerpt:
Mononucleosomes were reconstituted on a 187 bp DNA fragment containing the ‘601' sequence flanked on each site by a linker of 20 bp[55]. Oligonucleosomes were reconstituted on a 12 × 200 bp × 601 template. Plasmids carrying the respective inserts were purified using a Giga kit (Qiagen, Hilden, Germany). Templates for reconstitution were released from plasmids by restriction digest with BsoBI for mononucleosomes and a mix of DdeI, BfuCI, HaeII and EcoRI for oligonucleosomes. To separate vector backbone from DNA used for chromatin assembly stepwise precipitation with polyethylene glycol (PEG) 6000/0.5 M NaCl was carried out (final PEG concentration 2–9% and 20% (w/v)). DNA pellets were washed with 70% (v/v) ethanol and dissolved in water. Double stranded, short, biotinylated DNA linkers were ligated to the DNA template before chromatin reconstitution.
ITC measurements were performed on a iTC200 calorimeter (Microcal, Malvern, UK) at 25°C in binding buffer (10 mM triethanolamine (pH 7.5), 20 or 150 mM NaCl, 0.1 mM EDTA). Reaction heats were recorded by sequences of 37 injections of 1.8 mM hHP1β, spaced at 120 s intervals, into 250 μl of 60 μM H3 peptides, nucleosomes or oligonucleosomal arrays under constant stirring at 1,000 r.p.m. (injection #1–10: 0.5 μl each; injection #11–32: 1 μl each; injection #33–37: 2 μl each). Heats of dilution, obtained by the titration of hHP1β into buffer, were substracted from raw data before analysis. Raw data were integrated, normalized and the apparent heat change (Δq) of the reaction was plotted against the molecular ratio using the Origin software. For the determination of apparent enthalpy changes (ΔHapp), the molar association constant (KA), and the stoichiometry (n) of the interaction, non-linear least-square fitting of the Δq values was performed by the Origin software using a binding model of one set of identical binding sites.
Supplementary Table 1: Summary of conditions used in the different experiments of this study.
experiment result modification template Temp. [NaCl] [MgCl2] […]
(In general: ITC needs no label: the signal is the heat of the interaction.)

Assay [2] has as its target H3K9me3 mononucleosome. The assay is described as follows: SPR, immobilized (symmetric) H3K9me3 mononucleosome. The assay is classed as binding, Xenopus laevis. The method, then: SPR measurements were performed on a Biacore 2000 instrument (GE Healthcare, Buckinghamshire, UK) at 298 K in 10 mM triethanolamine (pH 7.5), 150 mM NaCl, 0.1 mM EDTA, 1 mM DTT, 0.005% (v/v) Tween-20. Biotinylated ligands were immobilized on streptavidin-coated sensor chips SA (GE Healthcare, Buckinghamshire, UK). Before immobilization, sensor chips were conditioned as described by the manufacturer. To obtain low surface densities (5–24 RU), 5 nM biotinylated H3 peptide was injected at a low rate of 10 μl min^−1 using varying contact times. High surface densities (>700 RU) were prepared by injecting […] peptide (10 μl min^−1) until the SA surface was saturated. Peptide-containing chips were regenerated by applying three short pulses of 0.05% (w/v) SDS followed by an injection of 1.5 M NaCl for baseline stabilization. For binding assays, hHP1β proteins were injected at […] (serial twofold dilutions) for 2 min (30 μl/min). Dissociation was recorded for up to 5 min. A streptavidin surface without ligands served as reference. In addition, blank runs were performed for double referencing. Data evaluation was performed by steady-state analysis assuming a Langmuir 1:1 binding model using BIAevaluation 4.1 and Prism 5.04 (GraphPad, CA, USA) software. Binding to the unmodified peptides was analysed with maximum binding (RUmax) set to the corresponding values obtained with the modified peptides.
Figure S8 Hiragami-Hamada et al. […]
Supplementary Figure 8: hHP1β binds nucleosomes as dimer. […]
RU. Injection series are from 0.024 to 50 µM protein concentration. […]
(f) SPR response traces of injection of hHP1β WT into Biacore cells containing biotinylated, symmetrically modified H3K9me3-mononucleosomes (i.e. both H3-tails carry H3K9me3) immobilized […]
(also on this page, place not known: dimer . hHP1 β H3K9me3 - se nsory ( b) site -specific ( b) hHP1 β ( d) site -specific hHP1 β modifi ed H3K9me3 -mononucleosomes H3 -tails -30 -50 -8 -4 200 -10 110 -50 -10 -30 [μM] [μM] -10 190 150 -10 110 200 -10 110 μl/min μl/min μl/min -50 150 response [RU] response [RU] response [RU] response [RU] response [RU] [μM] 10 50 response [RU]40 0 0 [μM] 10 30 50 response [RU] 40 0 0 40 [μM] 10 30 50 response [RU] 140 40 0 120 0 40 response [RU] response [RU] response [RU] Kd Kd μM Kd μM 0.8 0.6 0.4 0.2 0 1 1.0 0.8 0.6 0.4 0.2 0.0 mass fraction) […]
on a sensory chip via covalently coated streptavidin. Immobilized mononucleosome was at 950 RU.
Injection series are from 0.024 to 50 µM protein concentration.
(g) Blot of signal over concentration of the titration in (f) to deduce an apparent Kd value. For reference, fitting of the data to a one and two site- specific binding model is shown.
(h) Same analysis as in (f) but with hHP1β I161A. […]

The mark [3] stands for this setting: SPR titration 0.024 to 50 µM, symmetrically modified mononucleosome at 950 RU, one site-specific binding, read-out: apparent Kd (Supplementary Fig. 8g,i).
The mark [4] stands for this setting: SPR, 150 mM NaCl, pH 7.5, 298 K, steady-state, WT value based on fitting to a one site-specific binding model, read-out: Kd (apparent dissociation constant).

Like-named read-outs stand apart in the source and are kept apart here.

These results are taken from article PMC4838890, “Dynamic and flexible H3K9me3 bridging via HP1β dimerization establishes a plastic state of condensed chromatin” (Nature Communications, 2016).

On to “hHP1β WT: recombinant human heterochromatin protein 1β (GenBank NM_001127228), 185 aa”, for which, in assay [1] (150 mM versus 20 mM NaCl), the “better binding at the higher compared with the lower salt concentration” value is 2.7 fold. In addition, the Kd in assay [1] (20 mM NaCl) turned out to be 59 ± 8 µM; in assay [1] (150 mM NaCl) it was 22 ± 8 µM; in assay [2] (setting [3]), 0.92 µM; in assay [2] (setting [4]) it was 1 ± 0.2 µM.

Turning to “hHP1β I161A: CSD point mutant of hHP1β incapable of dimerization”, the Kd turned out to be 223 ± 30 µM in assay [1] (20 mM NaCl), 58 ± 17 µM in assay [1] (150 mM NaCl), 4.3 µM in assay [2] (setting [3]) and 5.2 ± 0.6 µM in assay [2] (setting [4]).
